In publication PMC13194685 (Cell Death & Disease, 2026):

Experiments:
[1] = target: T1, JNK2-STX1A interaction (Mus musculus, UniProt Q9WTU6); assay: evONC model: JNK2-STX1A co-localization (Pearson's analysis); assay type: in vivo, C57BL/6J mice; conditions: evONC T24; JGRi1 50, 250, 500 μM, sJGRi1 500 μM; one drop daily for 6 days; n = 5
T1 construct: from tissue; host or cells: retinal cryosections of C57BL/6J mice
Procedure: (§1) Animals were then euthanized via beheading.
(§2) Fluorescence intensity was quantified by using ImageJ software.
(§3) Co-localization between fluorescent signals in acquired images was expressed using Pearson’s score, which describes the correlation of the intensity distribution between two distinct fluorescent signals. The analysis was carried out using the “JACOP” plug-in available for the ImageJ software. At least 10 different fields per condition were utilized for the quantification.

[2] = system: STX1A; conditions: evONC T24; JGRi1 50, 250, 500 μM, sJGRi1 500 μM; one drop daily for 6 days; n = 5
Procedure: Mice were either left untreated or treated for 6 days with a single drop per day of JGRi1 dissolved into a balanced saline solution (BSS) buffer at different concentrations (50 μM, 250 μM, 500 μM). A total volume of 5 μL of JGRi1 solution was applied directly onto the cornea. Treated animals were kept immobilized and under observation for 1 minute to ensure proper peptide penetration within the eye. Animals were then euthanized via beheading. A scrambled version of the peptide (sJGRi1) at a concentration of 500 μM was included as a control. Subsequently, the optic nerve was cut, and the eyes were harvested according to our previously established protocol [25, 26]. The extracted eyes were kept in phosphate-buffered salt (PBS; Capricorn Scientifics, Germany) at 4 °C for 24 hours, then the retinas were dissected and processed accordingly.
Retinal cryosections were permeabilized using 0.5% Tryton-X (Merck, Germany) in PBS (Capricorn Scientifics, Germany) solution for 5 minutes. Then, blocked (0.1 M glycine, 2% w/v bovine serum albumin, 2% v/v fetal calf serum, 0.1% v/v Tryton-X) for 1 hour to avoid non-specific protein interactions. The primary antibody was diluted in the same blocking solution and held overnight at 4 °C. […] Fluorescence intensity was quantified by using ImageJ software.

[3] = system: L-glutamate; assay: NMDA injection model: retinal and synaptic glutamate immunoreactivity; assay type: in vivo, C57BL/6J mice; conditions: intravitreal NMDA; eye drops 250 μM daily from one day prior to NMDA through follow-up; n = 3
Procedure: as §2, §3

[4] = system: JNK2; assay: NMDA injection model: JNK2 immunofluorescence; assay type: in vivo, C57BL/6J mice; conditions: intravitreal NMDA; eye drops 250 μM daily; n = 4
Description: as §2

[5] = system: retinal ganglion cells (RGCs); assay: NMDA injection model: RGC viability, apoptosis, cytoarchitecture, CTB-488 transport; assay type: in vivo, C57BL/6J mice
[6] = system: microglia (IBA1); assay: NMDA injection model: microglial infiltration (IBA1 immunofluorescence); assay type: in vivo, C57BL/6J mice; conditions: intravitreal NMDA; eye drops 250 μM daily; n = 5
Description: as §2

[7] = system: A2 amacrine cells and rod bipolar cells (PROX1-positive); assay: evONC model: PROX1-positive cells in the INL; assay type: in vivo, C57BL/6J mice; conditions: evONC T24; JGRi1 50, 250, 500 μM, sJGRi1 500 μM; one drop daily for 6 days; n = 3
Description: as §1, §2

[8] = system: JNK2; assay: evONC model: JNK2 expression (immunofluorescence, immunoblot); assay type: in vivo, C57BL/6J mice; conditions: evONC T24; 500 μM eye drops (JGRi1 or sJGRi1), one drop daily for 6 days; n = 5
Description: as §1
(§4) Western blots were quantified by densitometry using ImageJ software.
as §2

[9] = system: SNARE complex; assay: evONC model: SNARE complex assay (native PAGE); assay type: in vivo, C57BL/6J mice; conditions: evONC T24; JGRi1 50, 250, 500 μM, sJGRi1 500 μM; one drop daily for 6 days; n = 6
Procedure: as §1
The modulation SNARE complex assembly by JGRi1 was evaluated via native PAGE. Briefly, samples were loaded using a non-denaturizing loading buffer (0.5 M Tris-HCl, pH 6.8, 15% v/v glycerol, and 1% v/v bromophenol blue). Samples were then left non-boiled to preserve protein-protein interaction, separated onto polyacrylamide gels, and then blotted onto nitrocellulose membranes. The immunoreactive bands were identified by using an antibody against STX1A, which is a core component of SNARE complexes. Bands starting from approximately 66 kDa were quantified as an indicator of the SNARE complex assembly upon treatment. β-tubulin was used as the loading control for quantification.

[10] = system: retinal ganglion cells (RGCs); assay: Ex vivo optic nerve cut (evONC) model: RGC viability, apoptosis, retinal cytoarchitecture; assay type: in vivo, C57BL/6J mice; conditions: evONC T24, JGRi1 50, 250, 500 μM, sJGRi1 500 μM, n = 4
Procedure: as §1, §4
The enucleated eyes were fixed in 4% paraformaldehyde solution overnight at 4 °C. Then, they were incubated in a 30% sucrose-in-PBS solution overnight, and finally, they were embedded in an optimal cutting temperature (OCT, Sigma, St. Louis, MO, USA) compound. Eyes were cut at a thickness of 20 μm. For reliability, the sections containing the optic nerve were utilized, and in each eye, at least five discontinuous sections were analyzed. For histological examination, cryosections were stained in Mayer’s Hematoxylin Solution (Merck, Germany), rinsed in tap water, then counterstained using Eosin Y alcoholic solution (Merck, Germany). Sections were mounted on coverslips with Eukitt (Merck, Germany), and observed under a light-transmission microscope (Nikon) with 40X magnification.
as §2

RISEQLSNIEEGQE [sJGRi1, control]
JNK2-STX1A co-localization (co-immunofluorescence, Pearson's analysis) [1]: produced an even more marked co-localization between JNK2 and STX1A | STX1A level (immunofluorescence) [2]: does not have any effect on JNK2 nor STX1A expression at T24 | L-glutamate immunofluorescence in retinal tissue [3]: had no effect | JNK2 immunoreactivity (immunofluorescence) [4]: did not prevent the NMDA-induced increase in JNK2 expression in the inner retina | RBPMS-positive cells (immunofluorescence), RGC viability ([5]; intravitreal NMDA 250 μM, 2 μL, eye drops 250 μM, 4 µL daily, from 24 hours prior to NMDA through the 4-week study period, n = 4): had no effect on either RGC viability or apoptosis | retinal cytoarchitecture (hematoxylin/Eosin staining) ([5]; intravitreal NMDA, eye drops 250 μM daily from one day prior to NMDA through follow-up, n = 3): failed to do so | c-CASP3 immunoreactivity / c-CASP3-positive cells, apoptosis ([5]; intravitreal NMDA, eye drops 250 μM daily from one day prior to NMDA through follow-up, n = 4): had no effect on either RGC viability or apoptosis | uptake and transport of the neural tracer CTB-488 in RGCs (mean fluorescence intensity) ([5]; intravitreal NMDA, eye drops 250 μM daily, CTB-488 1 µL intravitreal before sacrifice, n = 5): diminished CTB uptake and transport in RGCs | IBA1 immunoreactivity (microglial infiltration) [6]: no reduction was seen upon treatment with sJGRi1 | number of PROX1-positive cells in the INL [7]: did not produce any protective effect on PROX1-positive cell number | JNK2 immunoreactivity (immunofluorescence) [8]: does not have any effect on JNK2 nor STX1A expression at T24 | SNARE complex formation (STX1A signal from about 66 kDa, non-boiled samples, vs β-TUB) [9]: did not produce any effect on SNARE complex formation | RBPMS-positive cells in the GCL (immunofluorescence), RGC viability ([10]; one drop daily for 6 days before evONC): failed to rescue RGC viability upon evONC | RBPMS expression (immunoblot, densitometry vs β-TUB) ([10]; one drop daily for 6 days): did not produce any protective effect on RGC viability in comparison to the active peptide
